Data: patent EP0620225B1, “Cephalosporin derivatives” (Basilea Pharmaceutica AG, priority 1993, dated 1994)
Converted amounts (≈) assume the structure as drawn.

What was measured:
S.aureus Smith = test: Efficacy against systemic infections (septicemia) in mice; format: in vivo; conditions: Staphylococcus aureus, 96 h, sc 1 and 3 h after challenge, survival day 4
Description: Septicemia was induced in outbred Swiss albino mice (Jbm MoRo [specific pathogen free]; weight 16 to 20 g, Biomedical Research Laboratories, Füllinsdorf, Switzerland). Mice were infected by intraperitoneal injection of diluted overnight cultures of the test organisms. Bacterial challenge doses were 4-10 times the number of organisms required to kill 50% of untreated animals within 48 h. The test compounds were administered p.o. or s.c. 1 and 3 h after the bacterial challenge. To treat the infection with Pseudomonas aeruginosa BA an additional dose was given 5 h after challenge. Control and treatment groups at each dose were composed of five mice each. The 50% effective dose (ED50, in milligrams per kilogram) was calculated by probit analysis as described by Finney (Finney, D.J. 1978, Statistical method in biological assay, 3rd ed. Charles Griffin & Co., Ltd., London), from the survival rates on day 4 after infection.

K.pneumoniae 418 = test: Antibacterial spectrum (MIC), agar dilution; format: cell-based; conditions: Klebsiella pneumoniae, read-out: MIC
Description: (§1) In vitro activity was determined by minimum inhibitory concentration in a microorganism spectum by the agar dilution method in Mueller Hinton agar.

N.meningitidis 69480 = test: Antibacterial spectrum (MIC), agar dilution; format: cell-based; conditions: Neisseria meningitidis, read-out: MIC
Description: as §1

C.freundii 902 = test: Antibacterial spectrum (MIC), agar dilution; format: cell-based; conditions: Citrobacter freundii, read-out: MIC
Description: as §1

S.aureus 734 MRSA = test: Antibacterial spectrum (MIC), agar dilution; format: cell-based; conditions: Staphylococcus aureus, read-out: MIC
Description: as §1

E.coli 25922 = test: Antibacterial spectrum (MIC), agar dilution; format: cell-based; conditions: Escherichia coli, read-out: MIC
Description: as §1

S.pneumoniae Q19 = test: Antibacterial spectrum (MIC), agar dilution; format: cell-based; conditions: Streptococcus pneumoniae, read-out: MIC
Description: as §1

H.influenzae 1 = test: Antibacterial spectrum (MIC), agar dilution; format: cell-based; conditions: Haemophilus influenzae, read-out: MIC
Description: as §1

E.faecalis 6 = test: Antibacterial spectrum (MIC), agar dilution; format: cell-based; conditions: Enterococcus faecalis, read-out: MIC
Description: as §1

S.pyogenes B15 = test: Antibacterial spectrum (MIC), agar dilution; format: cell-based; conditions: Streptococcus pyogenes, read-out: MIC
Description: as §1

P.aeruginosa 27853 = test: Antibacterial spectrum (MIC), agar dilution; format: cell-based; conditions: Pseudomonas aeruginosa, read-out: MIC
Description: as §1

M.catarrhalis RA21 = test: Antibacterial spectrum (MIC), agar dilution; format: cell-based; conditions: Moraxella catarrhalis, read-out: MIC
Description: as §1

S.marcescens 69438 = test: Antibacterial spectrum (MIC), agar dilution; format: cell-based; conditions: Serratia marcescens, read-out: MIC
Description: as §1

M.morganii 6H-137 = test: Antibacterial spectrum (MIC), agar dilution; format: cell-based; conditions: Morganella morganii, 6H137, read-out: MIC
Description: as §1

X.maltophilia 1AC739 = test: Antibacterial spectrum (MIC), agar dilution; format: cell-based; conditions: Stenotrophomonas maltophilia, read-out: MIC
Description: as §1

P.vulgaris 1028 = test: Antibacterial spectrum (MIC), agar dilution; format: cell-based; conditions: Proteus vulgaris, read-out: MIC
Description: as §1

C.freundii 43 = test: Antibacterial spectrum (MIC), agar dilution; format: cell-based; conditions: Citrobacter freundii, read-out: MIC
Description: as §1

Acinetobacter sp.51-156 = test: Antibacterial spectrum (MIC), agar dilution; format: cell-based; conditions: SP.51156, read-out: MIC
Description: as §1

P.mirabilis 2117 = test: Antibacterial spectrum (MIC), agar dilution; format: cell-based; conditions: Proteus mirabilis, read-out: MIC
Description: as §1

S.aureus 6538 = test: Antibacterial spectrum (MIC), agar dilution; format: cell-based; conditions: Staphylococcus aureus, read-out: MIC
Description: as §1

E.cloacae 908R = test: Antibacterial spectrum (MIC), agar dilution; format: cell-based; conditions: Enterobacter cloacae, read-out: MIC
Description: as §1

S.viridans group 016 = test: Antibacterial spectrum (MIC), agar dilution; format: cell-based; conditions: Streptococcus viridans, read-out: MIC
Description: as §1

S.agalactiae QK44 = test: Antibacterial spectrum (MIC), agar dilution; format: cell-based; conditions: Streptococcus agalactiae, read-out: MIC
Description: as §1

E.cloacae 908SSi = test: Antibacterial spectrum (MIC), agar dilution; format: cell-based; conditions: Enterobacter cloacae, read-out: MIC
Description: as §1

E.faecalis = test: In vitro activity against selected species (MIC50, MIC90, range); format: cell-based; conditions: Enterococcus faecalis, medium MHA
Description: as §1

S.aureus MRSA = test: as above; format: cell-based; conditions: Staphylococcus aureus, medium MHA (Mueller Hinton Agar) +NaCl
Description: as §1

With `Nc1nc(/C(=N/O)C(=O)N[C@@H]2C(=O)N3C(C(=O)O)=C(/C=C4\CCN(c5ccccc5)C4=O)CS[C@H]23)cs1` [H] as the molecule, how does the ED50 (S.aureus Smith) read?
Its ED50 is < 0.5 mg/kg.

What about the MIC (K.pneumoniae 418) of the same molecule?
The MIC was 0.12 µg/mL (≈ 0.222 µM).

And the MIC (N.meningitidis 69480)?
The MIC was 0.12 µg/mL (≈ 0.222 µM).

What about the MIC (C.freundii 902) of the same molecule?
Its MIC is 0.5 µg/mL (≈ 0.925 µM).

What about the MIC (S.aureus 734 MRSA) of the same molecule?
Its MIC is 8 µg/mL (≈ 14.8 µM).

And the MIC (E.coli 25922)?
Its MIC is 0.25 µg/mL (≈ 0.462 µM).

What about the MIC (S.pneumoniae Q19) of the same molecule?
Its MIC is 0.12 µg/mL (≈ 0.222 µM).

What about the MIC (H.influenzae 1) of the same molecule?
The MIC was 0.5 µg/mL (≈ 0.925 µM).

What about the MIC (E.faecalis 6) of the same molecule?
The MIC was 0.25 µg/mL (≈ 0.462 µM).

And the MIC (S.pyogenes B15)?
The MIC was ≤ 0.06 µg/mL.

And the MIC (P.aeruginosa 27853)?
The MIC was 32 µg/mL (≈ 59.2 µM).

And the MIC (M.catarrhalis RA21)?
Its MIC is > 16 µg/mL.

And the MIC (S.marcescens 69438)?
The MIC was 1 µg/mL (≈ 1.85 µM).

What about the MIC (M.morganii 6H-137) of the same molecule?
Its MIC is ≤ 0.06 µg/mL.

What about the MIC (X.maltophilia 1AC739) of the same molecule?
The MIC was > 32 µg/mL.

What about the MIC (P.vulgaris 1028) of the same molecule?
Its MIC is 2 µg/mL (≈ 3.7 µM).

What about the MIC (C.freundii 43) of the same molecule?
Its MIC is 4 µg/mL (≈ 7.4 µM).

And the MIC (Acinetobacter sp.51-156)?
Its MIC is 32 µg/mL (≈ 59.2 µM).

And the MIC (P.mirabilis 2117)?
Its MIC is ≤ 0.06 µg/mL.

What about the MIC (S.aureus 6538) of the same molecule?
The MIC was 0.5 µg/mL (≈ 0.925 µM).

And the MIC (E.cloacae 908R)?
Its MIC is 16 µg/mL (≈ 29.6 µM).

What about the MIC (S.viridans group 016) of the same molecule?
The MIC was 1 µg/mL (≈ 1.85 µM).

What about the MIC (S.agalactiae QK44) of the same molecule?
Its MIC is 0.25 µg/mL (≈ 0.462 µM).

And the MIC (E.cloacae 908SSi)?
The MIC was 0.5 µg/mL (≈ 0.925 µM).

And the MIC (E.faecalis; MIC range)?
The MIC was 0.5 to 16 µg/mL (≈ 0.925 to 29.6 µM).

What about the MIC50 (E.faecalis) of the same molecule?
The MIC50 was 1 µg/mL (≈ 1.85 µM).

And the MIC90 (E.faecalis)?
The MIC90 was 1 µg/mL (≈ 1.85 µM).

What about the MIC (S.aureus MRSA; MIC range) of the same molecule?
The MIC was 16 to 32 µg/mL (≈ 29.6 to 59.2 µM).

What about the MIC50 (S.aureus MRSA) of the same molecule?
The MIC50 was 16 µg/mL (≈ 29.6 µM).

What about the MIC90 (S.aureus MRSA) of the same molecule?
Its MIC90 is 16 µg/mL (≈ 29.6 µM).
